In patent US11109593B2, “Isoxazolin-5-one derivative and herbicide containing same as active ingredient” (HOKKO CHEMICAL INDUSTRY CO., LTD., priority 2017, dated 2021):

The molecules below were run on Scirpus juncoides (assay: Test Example 2: herbicidal effect test by treatment during growing period in paddy rice cultivation (seven days after seeding)). Settings: 120 g/10a active ingredient, assessed 14 days after treatment, dry weight vs untreated area.
Assay type: in vivo
Summary of the method: (§1)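 Sow 30 seeds per species (0–1 cm) into puddled, fertilized paddy soil; keep flooded ~3 cm in greenhouse. Day 7 after seeding: drop water-diluted emulsion, 120 g a.i./10 ares. Harvest 14 d post-treatment; compare dry weight with untreated pots (duplicate).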
`Cc1c(Cc2ccccc2NS(=O)(=O)C(F)(F)F)c(=O)on1C(C)c1ccc(F)cc1` (stereo not shown) [Compound 1-204] was tested, and the “Herbicidal rate (%) Scirpus juncoides” value was 80%.
With `Cc1c(Cc2ccccc2N(S(=O)(=O)C(F)(F)F)S(=O)(=O)C(F)(F)F)c(=O)on1C(C)c1cccc(Cl)c1` (stereo not shown) [Compound 1-1033] the “Herbicidal rate (%) Scirpus juncoides” value was 80%.
With `Cc1c(Cc2ccccc2N(S(=O)(=O)C(F)(F)F)S(=O)(=O)C(F)(F)F)c(=O)on1C(C)c1ccc(F)cc1F` (stereo not shown) [Compound 1-1037] the “Herbicidal rate (%) Scirpus juncoides” value was 60%.
For `Cc1c(Cc2ccccc2N(S(=O)(=O)C(F)(F)F)S(=O)(=O)C(F)(F)F)c(=O)on1C(C)c1ccc(OC(F)(F)F)cc1` (stereo not shown) [Compound 1-1036], the “Herbicidal rate (%) Scirpus juncoides” value was 60%.
`Cc1c(Cc2ccccc2NS(=O)(=O)C(F)(F)F)c(=O)on1C(C)c1ccc(OC(F)(F)F)cc1` (stereo not shown) [Compound 1-209] was tested, and the “Herbicidal rate (%) Scirpus juncoides” value was 90%.

Each molecule was assayed on Echinochloa crus-galli in the same assay as above. Settings: 120 g/10a active ingredient, assessed 14 days after treatment, dry weight vs untreated area.
Assay type: in vivo
Summary of the method: as §1
`Cc1c(Cc2ccccc2NS(=O)(=O)C(F)(F)F)c(=O)on1C(C)c1ccc(F)cc1` (stereo not shown) [Compound 1-204] was tested, and the “Herbicidal rate (%) Echinochloa crus-galli” value was 80%.
In the case of `Cc1c(Cc2ccccc2N(S(=O)(=O)C(F)(F)F)S(=O)(=O)C(F)(F)F)c(=O)on1C(C)c1cccc(Cl)c1` (stereo not shown) [Compound 1-1033], the “Herbicidal rate (%) Echinochloa crus-galli” value is reported as 70%.
`Cc1c(Cc2ccccc2N(S(=O)(=O)C(F)(F)F)S(=O)(=O)C(F)(F)F)c(=O)on1C(C)c1ccc(F)cc1F` (stereo not shown) [Compound 1-1037] was tested, and the “Herbicidal rate (%) Echinochloa crus-galli” value was 90%.
In the case of `Cc1c(Cc2ccccc2N(S(=O)(=O)C(F)(F)F)S(=O)(=O)C(F)(F)F)c(=O)on1C(C)c1ccc(OC(F)(F)F)cc1` (stereo not shown) [Compound 1-1036], the “Herbicidal rate (%) Echinochloa crus-galli” value is reported as 40%.
For `Cc1c(Cc2ccccc2NS(=O)(=O)C(F)(F)F)c(=O)on1C(C)c1ccc(OC(F)(F)F)cc1` (stereo not shown) [Compound 1-209], the “Herbicidal rate (%) Echinochloa crus-galli” value was 40%.

What follows are molecules tested on broad leaf weeds (Lindernia pyxidaria and Monochoria vaginalis) in the same assay as above. Settings: Lindernia pyxidaria, 120 g/10a active ingredient, assessed 14 days after treatment, dry weight vs untreated area.
Assay type: in vivo
Summary of the method: as §1
With `Cc1c(Cc2ccccc2NS(=O)(=O)C(F)(F)F)c(=O)on1C(C)c1ccc(F)cc1` (stereo not shown) [Compound 1-204] the “Herbicidal rate (%) Lindernia pyxidaria” value was 80%.
`Cc1c(Cc2ccccc2N(S(=O)(=O)C(F)(F)F)S(=O)(=O)C(F)(F)F)c(=O)on1C(C)c1cccc(Cl)c1` (stereo not shown) [Compound 1-1033] was tested, and the “Herbicidal rate (%) Lindernia pyxidaria” value was 80%.
For `Cc1c(Cc2ccccc2N(S(=O)(=O)C(F)(F)F)S(=O)(=O)C(F)(F)F)c(=O)on1C(C)c1ccc(F)cc1F` (stereo not shown) [Compound 1-1037], the “Herbicidal rate (%) Lindernia pyxidaria” value was 60%.
For `Cc1c(Cc2ccccc2N(S(=O)(=O)C(F)(F)F)S(=O)(=O)C(F)(F)F)c(=O)on1C(C)c1ccc(OC(F)(F)F)cc1` (stereo not shown) [Compound 1-1036], the “Herbicidal rate (%) Lindernia pyxidaria” value was 60%.
With `Cc1c(Cc2ccccc2NS(=O)(=O)C(F)(F)F)c(=O)on1C(C)c1ccc(OC(F)(F)F)cc1` (stereo not shown) [Compound 1-209] the “Herbicidal rate (%) Lindernia pyxidaria” value was 60%.

Same assay, conditions: Monochoria vaginalis, 120 g/10a active ingredient, assessed 14 days after treatment, dry weight vs untreated area
`Cc1c(Cc2ccccc2NS(=O)(=O)C(F)(F)F)c(=O)on1C(C)c1ccc(F)cc1` (stereo not shown) [Compound 1-204] was tested, and the “Herbicidal rate (%) Monochoria vaginalis” value was 80%.
With `Cc1c(Cc2ccccc2N(S(=O)(=O)C(F)(F)F)S(=O)(=O)C(F)(F)F)c(=O)on1C(C)c1cccc(Cl)c1` (stereo not shown) [Compound 1-1033] the “Herbicidal rate (%) Monochoria vaginalis” value was 80%.
`Cc1c(Cc2ccccc2N(S(=O)(=O)C(F)(F)F)S(=O)(=O)C(F)(F)F)c(=O)on1C(C)c1ccc(F)cc1F` (stereo not shown) [Compound 1-1037] was tested, and the “Herbicidal rate (%) Monochoria vaginalis” value was 50%.
For `Cc1c(Cc2ccccc2N(S(=O)(=O)C(F)(F)F)S(=O)(=O)C(F)(F)F)c(=O)on1C(C)c1ccc(OC(F)(F)F)cc1` (stereo not shown) [Compound 1-1036], the “Herbicidal rate (%) Monochoria vaginalis” value was 60%.
For `Cc1c(Cc2ccccc2NS(=O)(=O)C(F)(F)F)c(=O)on1C(C)c1ccc(OC(F)(F)F)cc1` (stereo not shown) [Compound 1-209], the “Herbicidal rate (%) Monochoria vaginalis” value was 80%.

The molecules below were run on Scirpus juncoides (assay: Test Example 1: herbicidal effect test by treatment of rice paddy soil (immediately after seeding)). Settings: 120 g/10a active ingredient, dry weight vs untreated area, 14 days after treatment.
Assay type: in vivo
Summary of the method: (§2)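 Application occurs immediately after seeding, with diluted emulsion added to paddy water (about 3 cm deep) over puddled, fertilized soil at 120 g active ingredient per 10 ares. Herbicidal rate is calculated from mean dry weight against untreated controls 14 days later.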
For `Cc1c(Cc2ccccc2NS(=O)(=O)C(F)(F)F)c(=O)on1C(C)c1ccc(F)cc1` (stereo not shown) [Compound 1-204], the “Herbicidal rate (%) Scirpus juncoides” value was 90%.
With `Cc1c(Cc2ccccc2N(S(=O)(=O)C(F)(F)F)S(=O)(=O)C(F)(F)F)c(=O)on1C(C)c1cccc(Cl)c1` (stereo not shown) [Compound 1-1033] the “Herbicidal rate (%) Scirpus juncoides” value was 90%.
`Cc1c(Cc2ccccc2N(S(=O)(=O)C(F)(F)F)S(=O)(=O)C(F)(F)F)c(=O)on1C(C)c1ccc(F)cc1F` (stereo not shown) [Compound 1-1037] was tested, and the “Herbicidal rate (%) Scirpus juncoides” value was 90%.
For `Cc1c(Cc2ccccc2N(S(=O)(=O)C(F)(F)F)S(=O)(=O)C(F)(F)F)c(=O)on1C(C)c1ccc(OC(F)(F)F)cc1` (stereo not shown) [Compound 1-1036], the “Herbicidal rate (%) Scirpus juncoides” value was 70%.
`Cc1c(Cc2ccccc2NS(=O)(=O)C(F)(F)F)c(=O)on1C(C)c1ccc(OC(F)(F)F)cc1` (stereo not shown) [Compound 1-209] was tested, and the “Herbicidal rate (%) Scirpus juncoides” value was 70%.

These molecules were tested on Echinochloa crus-galli in the same assay as above. Settings: 120 g/10a active ingredient, dry weight vs untreated area, 14 days after treatment.
Assay type: in vivo
Summary of the method: as §2
With `Cc1c(Cc2ccccc2NS(=O)(=O)C(F)(F)F)c(=O)on1C(C)c1ccc(F)cc1` (stereo not shown) [Compound 1-204] the “Herbicidal rate (%) Echinochloa crus-galli” value was 100%.
`Cc1c(Cc2ccccc2N(S(=O)(=O)C(F)(F)F)S(=O)(=O)C(F)(F)F)c(=O)on1C(C)c1cccc(Cl)c1` (stereo not shown) [Compound 1-1033] was tested, and the “Herbicidal rate (%) Echinochloa crus-galli” value was 90%.
`Cc1c(Cc2ccccc2N(S(=O)(=O)C(F)(F)F)S(=O)(=O)C(F)(F)F)c(=O)on1C(C)c1ccc(F)cc1F` (stereo not shown) [Compound 1-1037] was tested, and the “Herbicidal rate (%) Echinochloa crus-galli” value was 90%.
For `Cc1c(Cc2ccccc2N(S(=O)(=O)C(F)(F)F)S(=O)(=O)C(F)(F)F)c(=O)on1C(C)c1ccc(OC(F)(F)F)cc1` (stereo not shown) [Compound 1-1036], the “Herbicidal rate (%) Echinochloa crus-galli” value was 70%.
In the case of `Cc1c(Cc2ccccc2NS(=O)(=O)C(F)(F)F)c(=O)on1C(C)c1ccc(OC(F)(F)F)cc1` (stereo not shown) [Compound 1-209], the “Herbicidal rate (%) Echinochloa crus-galli” value is reported as 90%.

What follows are molecules tested on broad leaf weeds (Lindernia pyxidaria and Monochoria vaginalis) in the same assay as above. Settings: Lindernia pyxidaria, 120 g/10a active ingredient, dry weight vs untreated area, 14 days after treatment.
Assay type: in vivo
Summary of the method: as §2
`Cc1c(Cc2ccccc2NS(=O)(=O)C(F)(F)F)c(=O)on1C(C)c1ccc(F)cc1` (stereo not shown) [Compound 1-204] was tested, and the “Herbicidal rate (%) Lindernia pyxidaria” value was 90%.
With `Cc1c(Cc2ccccc2N(S(=O)(=O)C(F)(F)F)S(=O)(=O)C(F)(F)F)c(=O)on1C(C)c1cccc(Cl)c1` (stereo not shown) [Compound 1-1033] the “Herbicidal rate (%) Lindernia pyxidaria” value was 100%.
In the case of `Cc1c(Cc2ccccc2N(S(=O)(=O)C(F)(F)F)S(=O)(=O)C(F)(F)F)c(=O)on1C(C)c1ccc(F)cc1F` (stereo not shown) [Compound 1-1037], the “Herbicidal rate (%) Lindernia pyxidaria” value is reported as 70%.
For `Cc1c(Cc2ccccc2N(S(=O)(=O)C(F)(F)F)S(=O)(=O)C(F)(F)F)c(=O)on1C(C)c1ccc(OC(F)(F)F)cc1` (stereo not shown) [Compound 1-1036], the “Herbicidal rate (%) Lindernia pyxidaria” value was 60%.
`Cc1c(Cc2ccccc2NS(=O)(=O)C(F)(F)F)c(=O)on1C(C)c1ccc(OC(F)(F)F)cc1` (stereo not shown) [Compound 1-209] was tested, and the “Herbicidal rate (%) Lindernia pyxidaria” value was 60%.

Same assay, conditions: Monochoria vaginalis, 120 g/10a active ingredient, dry weight vs untreated area, 14 days after treatment
In the case of `Cc1c(Cc2ccccc2NS(=O)(=O)C(F)(F)F)c(=O)on1C(C)c1ccc(F)cc1` (stereo not shown) [Compound 1-204], the “Herbicidal rate (%) Monochoria vaginalis” value is reported as 90%.
For `Cc1c(Cc2ccccc2N(S(=O)(=O)C(F)(F)F)S(=O)(=O)C(F)(F)F)c(=O)on1C(C)c1cccc(Cl)c1` (stereo not shown) [Compound 1-1033], the “Herbicidal rate (%) Monochoria vaginalis” value was 100%.
With `Cc1c(Cc2ccccc2N(S(=O)(=O)C(F)(F)F)S(=O)(=O)C(F)(F)F)c(=O)on1C(C)c1ccc(F)cc1F` (stereo not shown) [Compound 1-1037] the “Herbicidal rate (%) Monochoria vaginalis” value was 60%.
With `Cc1c(Cc2ccccc2N(S(=O)(=O)C(F)(F)F)S(=O)(=O)C(F)(F)F)c(=O)on1C(C)c1ccc(OC(F)(F)F)cc1` (stereo not shown) [Compound 1-1036] the “Herbicidal rate (%) Monochoria vaginalis” value was 60%.
With `Cc1c(Cc2ccccc2NS(=O)(=O)C(F)(F)F)c(=O)on1C(C)c1ccc(OC(F)(F)F)cc1` (stereo not shown) [Compound 1-209] the “Herbicidal rate (%) Monochoria vaginalis” value was 60%.
